# Measured values taken from patent US20250154144A1 (CHILDREN'S HOSPITAL MEDICAL CENTER, priority 2021, published 2025).
# Like-named read-outs stand apart in the source and are kept apart here.
# Columns and labels:
# IRAK1 = IRAK1 (Homo sapiens, UniProt P51617); experiment: RBC HotSpot Kinase Assay, IRAK1
# IRAK4 = target: T1, IRAK4 (Homo sapiens, UniProt Q9NWZ3); experiment: RBC HotSpot Kinase Assay, IRAK4
# T1 sequence (Q9NWZ3 1-460): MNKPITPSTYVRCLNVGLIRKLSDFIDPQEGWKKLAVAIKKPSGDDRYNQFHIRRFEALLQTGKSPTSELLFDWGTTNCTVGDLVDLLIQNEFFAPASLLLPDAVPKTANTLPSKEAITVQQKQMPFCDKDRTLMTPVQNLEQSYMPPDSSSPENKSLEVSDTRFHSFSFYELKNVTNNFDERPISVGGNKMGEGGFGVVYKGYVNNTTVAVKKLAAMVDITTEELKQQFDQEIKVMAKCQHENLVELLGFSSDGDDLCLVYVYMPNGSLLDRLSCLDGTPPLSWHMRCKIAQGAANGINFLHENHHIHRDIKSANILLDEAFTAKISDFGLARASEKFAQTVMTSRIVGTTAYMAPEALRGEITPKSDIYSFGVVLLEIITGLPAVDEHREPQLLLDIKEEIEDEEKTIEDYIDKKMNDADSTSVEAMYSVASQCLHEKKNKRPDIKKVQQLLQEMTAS
# FLT3 = target: T2, FLT3 (Homo sapiens, UniProt P36888); experiment: RBC HotSpot Kinase Assay, FLT3
# T2 sequence (P36888 610-943 limits assumed): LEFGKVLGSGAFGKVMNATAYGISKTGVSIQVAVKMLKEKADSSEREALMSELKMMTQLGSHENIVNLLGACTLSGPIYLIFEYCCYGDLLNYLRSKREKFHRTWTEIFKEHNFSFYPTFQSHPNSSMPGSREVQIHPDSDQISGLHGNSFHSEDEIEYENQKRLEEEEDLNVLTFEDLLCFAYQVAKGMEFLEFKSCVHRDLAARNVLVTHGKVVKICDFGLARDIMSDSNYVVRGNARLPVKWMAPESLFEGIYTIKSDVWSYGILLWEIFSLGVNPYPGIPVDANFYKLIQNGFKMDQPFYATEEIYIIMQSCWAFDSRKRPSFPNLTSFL
# Sequence of IRAK1 (P51617 whole entry): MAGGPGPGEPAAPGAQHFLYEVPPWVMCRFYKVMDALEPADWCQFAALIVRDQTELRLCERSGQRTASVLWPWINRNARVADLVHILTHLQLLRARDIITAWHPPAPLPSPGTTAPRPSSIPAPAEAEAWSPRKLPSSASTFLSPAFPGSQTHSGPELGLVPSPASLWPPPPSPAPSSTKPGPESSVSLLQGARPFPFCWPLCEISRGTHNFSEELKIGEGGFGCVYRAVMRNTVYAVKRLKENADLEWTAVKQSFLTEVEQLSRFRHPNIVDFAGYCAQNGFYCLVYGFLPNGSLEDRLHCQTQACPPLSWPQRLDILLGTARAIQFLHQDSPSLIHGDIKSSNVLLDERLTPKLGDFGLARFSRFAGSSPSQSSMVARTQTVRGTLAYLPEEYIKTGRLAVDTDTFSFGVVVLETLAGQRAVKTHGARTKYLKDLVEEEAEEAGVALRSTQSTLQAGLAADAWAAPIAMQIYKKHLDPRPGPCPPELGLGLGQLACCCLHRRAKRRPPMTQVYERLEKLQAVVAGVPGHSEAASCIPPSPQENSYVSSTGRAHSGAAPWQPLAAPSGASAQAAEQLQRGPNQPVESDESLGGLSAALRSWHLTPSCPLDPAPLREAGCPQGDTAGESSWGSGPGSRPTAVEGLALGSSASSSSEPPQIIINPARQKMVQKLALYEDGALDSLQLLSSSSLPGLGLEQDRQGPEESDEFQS
Structure (SMILES),IC50 (IRAK1; IRAK1 IC50),IC50 (IRAK4; IRAK4 IC50),IC50 (FLT3; FLT3 IC50),IC50 (IRAK1; read-out: IRAK1 IC50),IC50 (IRAK4; read-out: IRAK4 IC50),IC50 (FLT3; read-out: FLT3 IC50)
"COc1cc2ncc(-c3cncc(N[C@@H]4CCCNC4)n3)n2cc1C(C)(O)C(F)(F)F (single isomer, unassigned) [Compound 63]",2 nM,0.7 nM,< 0.5 nM,–,–,–
COc1cc2ncc(-c3ccnc(N[C@H]4CNCC[C@@H]4F)n3)n2cc1C(C)(O)C(F)(F)F (stereo partly drawn) [Compound 60],< 0.5 nM,< 0.5 nM,< 0.5 nM,–,–,–
"COc1cc2ncc(-c3ccnc(N[C@H]4CNC[C@@H]4F)n3)n2cc1C(C)(O)C(F)(F)F (single isomer, unassigned) [Compound 56]",–,–,–,< 0.5 nM,< 0.5 nM,< 0.5 nM
"COc1cc2ncc(-c3cncc(N[C@@H]4CCCNC4)n3)n2cc1C(C)(O)C(F)(F)F (single isomer, unassigned) [Compound 64]",1 nM,< 0.5 nM,–,–,–,< 0.5 nM
"COc1cc2ncc(-c3cncc(N[C@H]4CNCC[C@@H]4F)n3)n2cc1C(C)(O)C(F)(F)F (single isomer, unassigned) [Compound 66]",–,–,–,< 0.5 nM,< 0.5 nM,< 0.5 nM
"CC(C)(O)c1ccc2ncc(-c3cncc(N[C@@H]4CCCNC4)n3)n2c1 [Compound 17, (R)-2-(3-(6-(piperidin-3-ylamino)pyrazin-2-yl)imidazo[1,2-a]pyridin-6-yl)propan-2-ol]",105 nM,7 nM,5 nM,–,–,–
"COc1cc2ncc(-c3ccnc(N[C@@H]4CCCNC4)n3)n2cc1C(C)(O)C(F)(F)F (single isomer, unassigned) [Compound 57]",< 0.5 nM,< 0.5 nM,< 0.5 nM,–,–,–
"F[C@H]1CNC[C@@H]1Nc1nccc(-c2cnc3cc(OC4CC4)ccn23)n1 [Compound 37, 4-(7-cyclopropoxyimidazo [1,2-a]pyridin-3-yl)-N-((3S,4S)-4-fluoropyrrolidin-3-yl)pyrimidin-2-amine]",13 nM,1 nM,< 0.5 nM,–,–,–
"CC(C)(O)c1ccc2ncc(-c3ccnc(N[C@@H]4CCCNC4)n3)n2c1 [Compound 41, (R)-2-(3-(2-(piperidin-3-ylamino)pyrimidin-4-yl)imidazo[1,2-a]pyridin-6-yl)propan-2-ol]",124 nM,8 nM,1 nM,–,–,–
"CC(C)(O)c1ccc2ncc(-c3ccnc(N[C@H]4CNC[C@@H]4F)n3)n2c1 [Compound 40, 2-(3-(2-(((3S,4S)-4-fluoropyrrolidin-3-yl)amino)pyrimidin-4-yl)imidazo[1,2-a]pyridin-6-yl)propan-2-ol]",79 nM,1 nM,< 0.5 nM,–,–,–
